Laboratory results from patent US9957266B2, “Imidazo[1,2-a]pyridin-7-amine” (Hoffmann-La Roche Inc., priority 2013, dated 2018).

Experiments:
native tau aggregates = assay: TAU radioligand in vitro displacement assay ([^3H]T808, autoradiography); type: binding; conditions: human AD brain sections; radioligand [^3H]T808 10 nM; cold compound 10 nM; 50 mM Tris pH 7.4, room temperature, 30 min
Procedure: (§1) FIG. 3 represents data from the TAU radioligand in vitro displacement assay described below. This in vitro binding assay assesses the affinity of compounds for native tau aggregates. The compounds are co-incubated with the well-established tau specific radioligand [^3H]T808 and the compound's displacement potency of [^3H]T808 binding is determined by in vitro autoradiography using human Alzheimer's disease (AD) brain sections.
as §1, with “This” for “FIG. 3 represents data from the TAU radioligand in vitro displacement assay described below. This”, “sections (see FIG. 3).” for “sections.”
AD human brains are purchased from Banner Sun Health Research Institute (Sun City, Ariz., USA). Pathological diagnosis of AD is made according to standard NIA-Reagan Institute criteria based on neuropathological data. The radioligand [^3H]T808 was synthesized in-house ([^3H]-2-[4-(2-Fluoro-ethyl)-piperidin-1-yl]-benzo[4,5]imidazo[1,2-a]pyrimidine, radiochemical purity 99.0%). As a reference cold T808 is used (2-[4-(2-Fluoro-ethyl)-piperidin-1-yl]-benzo[4,5]imidazo[1,2-a]pyrimidine). For the autoradiography FujiFilm Imaging Plates (BAS-IP TR 2025) are exposed to the sections and read with a FujiFilm IP reader (BAS-5000).
Ten μm thick human AD brain sections are generated with a cryostat (Leica CM3050) at −17° C. chamber temperature and −15° C. object temperature. Sections are transferred to Histobond+ microscope slides (Marienfeld Laboratory Glasware). After drying for 3 hours at room temperature the sections are stored at −20° C. The sections are incubated with the radioligand (10 nM) and the respective cold compound (at various concentrations) in 50 mM Tris buffer, pH 7.4 at room temperature for 30 min. After washing 3×10 min at 4° C. in 50 mM Tris buffer, pH 7.4 and 3 quick dips in H2O dist. at 4° C. the sections are dried at 4° C. for 3 h. The sections are placed in a FujiFilm Cassette (BAS 2025), exposed with an Imaging Plate for five days and afterwards scanned with a resolution of […].
The signal intensity (Dens-PSL/mm2) in the region of interest (ROI) of the autoradiogram is quantified with the software MCID analysis (version 7.0, Imaging Research Inc.). The specific binding (SB) of [^3H]T808 binding in absence or in presence of a compound is calculated by subtracting the non-specific binding signal in the white matter, thus yielding SB[3H]T808 only and SBcompound. The % displacement by the various compounds is calculated as following: % displacement=100−(SBcompund/SB[3H]T808 only)*100. Validation Data
In each experiment cold T808 is used as a positive internal control. […]

tau aggregates = assay: Autoradiography of tritiated radioligands on human cortical AD brain sections; type: binding; conditions: Braak V staged AD patient
tau aggregates, sequence (P10636 623-695 limits assumed): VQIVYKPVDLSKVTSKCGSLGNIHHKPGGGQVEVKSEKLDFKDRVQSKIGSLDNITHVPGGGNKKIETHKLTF
Procedure: FIG. 1 is an autoradiogram of [^3H]-2-(4-methoxyphenyl)imidazo[1,2-a]pyridin-7-amine (example 5) incubated with human cortical brain sections obtained from a Braak V staged AD patient. The radioligand concentration was 2.6 nM.
FIG. 2 is an autoradiogram of [^3H]-2-[4-(2-fluoroethoxy)phenyl]imidazo[1,2-a]pyridin-7-amine (example 6) incubated with human cortical brain sections obtained from a Braak V staged AD patient. The radioligand concentration was 2.5 nM.
FIGS. 1 and 2 represent autoradiograms of respectively [[^3H]-2-(4-methoxyphenyl)imidazo[1,2-a]pyridin-7-amine (example 5) and [^3H]-2-[4-(2-fluoroethoxy)phenyl]imidazo[1,2-a]pyridin-7-amine (example 6) incubated with human cortical brain sections obtained from a Braak V staged AD patient. The radioligand concentrations were 2.6 and 2.5 nM, respectively.

## COc1ccc(-c2cn3ccc(N)cc3n2)cc1 [Example 1, 2-(4-Methoxyphenyl)imidazo[1,2-a]pyridin-7-amine]
Native tau aggregates
  % displacement of [^3H]T808 (10 nM) at 10 nM: 67%

## Nc1ccn2cc(-c3ccc(OCF)cc3)nc2c1 [Example 2, 2-(4-(Fluoromethoxy)phenyl)imidazo[1,2-a]pyridin-7-amine]
Native tau aggregates
  % displacement of [^3H]T808 (10 nM) at 10 nM: 51%

## Nc1ccn2cc(-c3ccc(OCCCF)cc3)nc2c1 [Example 3, 2-[4-(3-Fluoropropoxy)phenyl]imidazo[1,2-a]pyridin-7-amine]
Native tau aggregates
  % displacement of [^3H]T808 (10 nM) at 10 nM: 25%

## Nc1ccn2cc(-c3ccc(OCCF)cc3)nc2c1 [Example 4, 2-[4-(2-Fluoroethoxy)phenyl]imidazo[1,2-a]pyridin-7-amine]
Native tau aggregates
  % displacement of [^3H]T808 (10 nM) at 10 nM: 50%

## [^3H]-2-(4-Methoxyphenyl)imidazo[1,2-a]pyridin-7-amine [Example 5]
Tau aggregates; radioligand concentration 2.6 nM (FIG. 1)
  autoradiogram staining pattern: punctate staining of tau aggregates in a layered distribution pattern and a varying degree of non-specific binding in white matter

## [^3H]-2-[4-(2-Fluoroethoxy)phenyl]imidazo[1,2-a]pyridin-7-amine [Example 6]
Tau aggregates; radioligand concentration 2.5 nM (FIG. 2)
  autoradiogram staining pattern: punctate staining of tau aggregates in a layered distribution pattern and a varying degree of non-specific binding in white matter
